Experimental data taken from patent publication US9145415B2, “Nitrogen-containing heterocyclic compound or salt thereof” (FUJIFILM Corporation, priority 2012, dated 2015).

Columns and labels:
MV4-11 cells = experiment: Leukemia cell proliferation inhibition test (ATPlite), MV4-11; type: cell-based; details: Homo sapiens, MV4-11, 72 h, MV4-11, 72 hours culture, ATPlite; GI50 per method; read-out: MV4-11 cell proliferation inhibition effect
Description: (§1) A leukemia cell proliferation inhibition test was performed for the compounds of the present invention by using the leukemia cell strains MV4-11 (ATCC Number, CRL-9591) and Molm-13 (DSMZ Number, ACC554).
(§2) The leukemia cell proliferation inhibition test was performed by the method described below.
(§3) For the purpose of measuring proliferation inhibition attained with a compound, the total cell count was quantified on the basis of the total cellular ATP concentration using the ATPlite (PerkinElmer) reagent utilizing firefly luciferase. The Molm-13 or MV4-11 cells were added to the RPMI medium containing penicillin and streptomycin (penn/strep) and 10% FBS at a density of 2×10^5 cells/ml, and 50 μL (10,000 cells) of the cell suspension was inoculated to each well of a 96-well plate (Corning).
(§4) A serially diluted solution of a compound or 0.1% DMSO (solvent control) in a volume of 50 μL was added to the cells, and then the cells were cultured for 72 hours under the standard cell proliferation conditions (37° C., 5% CO2) to allow proliferation of the cells. In order to measure the proliferation of the total cells, equal volume of the ATPlite reaction mixture was added to each well in accordance with the instructions attached to ATPlite, and then luminescence count of the well was measured (relative light unit, RLU).
(§5) The RLU signal observed with the DMSO solvent control after 72 hours of the culture was defined as a signal indicating 0% inhibition, and the GI50 value for the proliferation inhibition corresponds to a concentration of a compound that provides 50% inhibition based on the proliferation of the total cells contained in the DMSO solvent control. Each data point was obtained from samples in duplicate. The GI50 values were calculated by the non-linear regression fitting (Fit Model (205)) according to a sigmoid dose-reaction equation using the XLfit software.

[1] = biological target: T1, human FLT3 protein (FLT3 (WT)) (Homo sapiens, UniProt P36888); experiment: FLT3 inhibition test (FLT3 enzyme inhibition, time-resolved fluorescence of substrate peptide phosphorylation); type: biochemical; details: GST-fused human FLT3 (564 to 993 aa), ATP 50 μM; read-out: FLT3 (WT) enzyme inhibition activity
T1 construct: human FLT3 protein (intracellular region, 564 to 993 aa); GST; purchased Carna Biosciences; host or cells: baculovirus expression system
T1 sequence (P36888 564-993): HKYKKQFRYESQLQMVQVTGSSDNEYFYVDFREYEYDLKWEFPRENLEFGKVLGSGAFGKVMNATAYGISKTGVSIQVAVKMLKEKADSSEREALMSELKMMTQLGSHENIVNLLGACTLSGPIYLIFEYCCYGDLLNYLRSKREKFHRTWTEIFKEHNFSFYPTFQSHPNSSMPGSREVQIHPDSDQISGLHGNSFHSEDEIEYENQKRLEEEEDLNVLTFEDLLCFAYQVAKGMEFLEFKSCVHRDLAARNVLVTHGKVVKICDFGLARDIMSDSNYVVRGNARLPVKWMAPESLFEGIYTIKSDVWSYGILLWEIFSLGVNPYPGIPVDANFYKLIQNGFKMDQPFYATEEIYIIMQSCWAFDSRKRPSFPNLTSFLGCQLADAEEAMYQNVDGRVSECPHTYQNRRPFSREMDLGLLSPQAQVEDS
Description: The FLT3 inhibition test was performed for the compounds of the present invention by the method described below.
A reaction mixture in a volume of 9 μL containing the FLT3 protein and a test compound of a predetermined concentration (1.2 μg of FLT3, 100 mM HEPES, 10 mM MgCl2, 25 mM NaCl, 0.01% BSA, 1 mM DTT, pH 7.5) was left standing at 25° C. for 15 minutes. […] (Toray Industries), and 3 μL (final concentration 50 μM) of ATP (Sigma-Aldrich) were added to the reaction mixture, and the mixture was shaken for 2 minutes, and then further left standing at 25° C. for 30 minutes to allow the enzymatic reaction.

Molm-13 cells = experiment: Leukemia cell proliferation inhibition test (ATPlite), Molm-13; type: cell-based; details: Homo sapiens, MOLM-13, 72 h, Molm-13, 72 hours culture, ATPlite; GI50 per method; read-out: MOLM13 cell proliferation inhibition effect
Description: as §1, §2, §3, §4, §5

IC50 (MV4-11 cells) | IC50 [1] | IC50 (Molm-13 cells) | SMILES
10 to 100 nM | < 10 nM | 10 to 100 nM | C=CC(=O)NCC(=O)Nc1cc(Cl)cc(NC(=O)c2cnc(NCCc3ccncc3)nc2NCCC)c1 [Compound 2-5]
10 to 100 nM | 10 to 100 nM | 10 to 100 nM | C=CC(=O)NCC(=O)Nc1cc(NC(=O)c2cnc(NCCc3ccncc3)nc2NCCC)c(C)cc1C [Compound 2-6]
10 to 100 nM | < 10 nM | 100 to 1000 nM | C=CC(=O)NCCC(=O)Nc1cccc(NC(=O)c2cnc(NCCc3ccncc3)nc2NCCC)c1 [Compound 2-7]
< 10 nM | < 10 nM | < 10 nM | CCCNc1nc(NCCc2ccncc2)ncc1C(=O)Nc1cccc(NC(=O)CNC(=O)/C=C/CN(C)C)c1 [Compound 2-9]
100 to 1000 nM | < 10 nM | 100 to 1000 nM | CCCNc1nc(NCCc2ccncc2)ncc1C(=O)Nc1cccc(NC(=O)CCNC(=O)/C=C/CN(C)C)c1 [Compound 2-10]
10 to 100 nM | < 10 nM | 10 to 100 nM | CCCNc1nc(NCCc2ccncc2)ncc1C(=O)Nc1cccc(NC(=O)C(C)(C)NC(=O)/C=C/CN(C)C)c1 [Compound 2-11]
< 10 nM | < 10 nM | < 10 nM | CCCNc1nc(NCCc2ccncc2)ncc1C(=O)Nc1cccc(NC(=O)[C@H](C)N(C)C(=O)/C=C/CN(C)C)c1 [Compound 2-12, (S,E)-N-(3-(2-(4-(Dimethylamino)-N-methyl-2-butenamido)propanamido)phenyl)-4-(propylamino)-2-((2-(pyridin-4-yl)ethyl)amino)pyrimidine-5-carboxamide]
10 to 100 nM | < 10 nM | 10 to 100 nM | CCCNc1nc(NCCc2ccncc2)ncc1C(=O)Nc1cccc(NC(=O)CNC(=O)/C=C/CN2CCOCC2)c1 [Compound 2-13]
10 to 100 nM | < 10 nM | 10 to 100 nM | CCCNc1nc(NCCc2ccncc2)ncc1C(=O)Nc1cccc(NC(=O)CNC(=O)/C=C/CN2CCN(C)CC2)c1 [Compound 2-14]
100 to 1000 nM | < 10 nM | 100 to 1000 nM | CCCNc1nc(NCCc2ccncc2)ncc1C(=O)Nc1cccc(NC(=O)CNC(=O)/C=C/CN2CC(C)NC(C)C2)c1 (stereo not drawn) [Compound 2-15]
10 to 100 nM | < 10 nM | 100 to 1000 nM | CCCNc1nc(NCCc2ccncc2)ncc1C(=O)Nc1cccc(NC(=O)CNC(=O)/C=C/CN2CCN(CCO)CC2)c1 [Compound 2-16]
100 to 1000 nM | 10 to 100 nM | 100 to 1000 nM | C=CC(=O)NCCNC(=O)c1cnc(NCCc2ccncc2)nc1NCCC [Compound 2-17]
> 1000 nM | 10 to 100 nM | > 1000 nM | C=CC(=O)NCC(=O)NCCNC(=O)c1cnc(NCCc2ccncc2)nc1NCCC [Compound 2-18]
> 1000 nM | 10 to 100 nM | > 1000 nM | C=CC(=O)NCCC(=O)NCCNC(=O)c1cnc(NCCc2ccncc2)nc1NCCC [Compound 2-19]
10 to 100 nM | < 10 nM | 10 to 100 nM | C=CC(=O)NCCOc1cccc(NC(=O)c2cnc(NCCc3ccncc3)nc2NCCC)c1 [Compound 2-20]
10 to 100 nM | 10 to 100 nM | 10 to 100 nM | C=CC(=O)NCCCNC(=O)c1cnc(NCCc2ccncc2)nc1NCCC [Compound 2-21]
10 to 100 nM | < 10 nM | < 10 nM | C=CC(=O)N(C)CC(=O)NCCCNC(=O)c1cnc(NCCc2ccncc2)nc1NCCC [Compound 2-23]

IC50 (MV4-11 cells) | IC50 [1] | IC50 (Molm-13 cells) | SMILES
10 to 100 nM | < 10 nM | 10 to 100 nM | CCCNc1nc(NCCc2ccncc2)ncc1C(=O)NCCCNC(=O)CNC(=O)/C=C/CN(C)C [Compound 2-24]
100 to 1000 nM | 10 to 100 nM | 100 to 1000 nM | C=CC(=O)Nc1cccc(NC(=O)c2cnc(NCCc3ccncc3)nc2NCCC)c1 [Compound 2-25]
100 to 1000 nM | 10 to 100 nM | 100 to 1000 nM | C=CC(=O)Nc1cccc(CNC(=O)c2cnc(NCCc3ccncc3)nc2NCCC)c1 [Compound 2-26]
100 to 1000 nM | 10 to 100 nM | 100 to 1000 nM | C=CC(=O)NCC(=O)Nc1cccc(CNC(=O)c2cnc(NCCc3ccncc3)nc2NCCC)c1 [Compound 2-27]
100 to 1000 nM | 100 to 1000 nM | 100 to 1000 nM | C=CC(=O)Nc1cc(NC(=O)c2cnc(NCCc3ccncc3)nc2NCCC)cc(C(F)(F)F)c1 [Compound 2-28]
100 to 1000 nM | 10 to 100 nM | 100 to 1000 nM | C=CC(=O)NCC(=O)Nc1ccccc1CNC(=O)c1cnc(NCCc2ccncc2)nc1NCCC [Compound 2-29]
< 10 nM | < 10 nM | < 10 nM | CCCNc1nc(Nc2ccc(C(N)=O)cc2)ncc1C(=O)Nc1cccc(NC(=O)[C@H](C)N(C)C(=O)/C=C/CN(C)C)c1 [Compound 3-1, (S,E)-2-((4-carbamoylphenyl)amino)-N-(3-(2-(4-(dimethylamino)-N-methyl-2-butenamido)propanamido)phenyl)-4-(propylamino)pyrimidine-5-carboxamide]
10 to 100 nM | < 10 nM | 10 to 100 nM | C=CC(=O)NCC(=O)NC1CCCC(NC(=O)c2cnc(Nc3ccc(C(N)=O)cc3)nc2NCCC)C1 (stereo not drawn) [Compound 3-2]
10 to 100 nM | < 10 nM | 10 to 100 nM | CCCNc1nc(Nc2ccc(C(N)=O)cc2)ncc1C(=O)NC1CCCC(NC(=O)CNC(=O)/C=C/CN(C)C)C1 (stereo not drawn) [Compound 3-3]
< 10 nM | < 10 nM | < 10 nM | CCCNc1nc(Nc2ccc(C(N)=O)cc2)ncc1C(=O)NC1CCCC(NC(=O)CN(C)C(=O)/C=C/CN(C)C)C1 (stereo not drawn) [Compound 3-4, (E)-2-((4-Carbamoylphenyl)amino)-N-(3-(2-(4-(dimethylamino)-N-methyl-2-butenamido)actamido)cyclohexyl)-4-(propylamino)pyrimidine-5-carboxamide]
100 to 1000 nM | < 10 nM | > 1000 nM | CCCNc1nc(Nc2ccc(C(N)=O)cc2)ncc1C(=O)Nc1ccc(NC(=O)/C=C/CN(C)C)cc1 [Compound 3-6]
10 to 100 nM | < 10 nM | 10 to 100 nM | CCCNc1nc(Nc2ccc(C(N)=O)cc2)ncc1C(=O)Nc1cccc(NC(=O)[C@H](C)N(C)C(=O)/C=C/CBr)c1 [Compound 3-7, (S,E)-N-(3-(2-(4-bromo-N-methyl-2-butenamido)propanamido)phenyl)-2-((4-carbamoylphenyl)amino)-4-(propylamino)pyrimidine-5-carboxamide]
10 to 100 nM | < 10 nM | 10 to 100 nM | C=CC(=O)NCC(=O)Nc1cccc(NC(=O)c2cnc(Nc3ccc(C(N)=O)cc3)nc2NCCC)c1 [Compound 3-8]
10 to 100 nM | < 10 nM | 10 to 100 nM | C/C=C/C(=O)N(C)[C@@H](C)C(=O)Nc1cccc(NC(=O)c2cnc(Nc3ccc(C(N)=O)cc3)nc2NCCC)c1 [Compound 3-9]
100 to 1000 nM | < 10 nM | 100 to 1000 nM | C=C(C)C(=O)N(C)[C@@H](C)C(=O)Nc1cccc(NC(=O)c2cnc(Nc3ccc(C(N)=O)cc3)nc2NCCC)c1 [Compound 3-10]
< 10 nM | < 10 nM | 10 to 100 nM | CC#CC(=O)N(C)[C@@H](C)C(=O)Nc1cccc(NC(=O)c2cnc(Nc3ccc(C(N)=O)cc3)nc2NCCC)c1 [Compound 3-11]
10 to 100 nM | < 10 nM | 10 to 100 nM | CCCNc1nc(Nc2ccc(C(N)=O)cc2)ncc1C(=O)Nc1cccc(NC(=O)[C@H](C)NC(=O)/C=C/CN(C)C)c1 [Compound 3-12]
